According to PMC10652874, “Investigation into the mechanism of action of the antimicrobial peptide epilancin 15X” (Frontiers in Microbiology, 2023):

How the values were obtained:
B. subtilis 168 = experiment: MIC determination in 96-well microtiter plate; assay type: cell-based, Bacillus subtilis; settings: LB, 37°C, 10^5 CFU/mL, OD600 after 18 h
Experimental: (§1) MIC determination was performed in a 96-well microtiter plate as described previously ([Wu et al., 2019]). Sensitive bacterial culture was grown in the appropriate medium (BHI for S. carnosus; LB for B. subtilis) at 37°C overnight. The culture was diluted to 10^5 CFU/mL in medium in each well. Epilancin 15X or its analog was dissolved in water and serially diluted to obtain final concentrations of 20, 10, 5, 2.5, 1.25, 0.625, 0.3125, 0.156, 0.078, 0.039, 0.019, and 0.009 μM. OD600 readings were obtained after 18 h using a Synergy H4 Hybrid Multi-Mode Microplate Reader (BioTeK). Cell-free untreated medium, and untreated cell culture were used as negative controls. The MIC of nisin against B. subtilis BSF2470 was determined following the same methods.

B. subtilis ATCC 6633 = experiment: MIC determination in 96-well microtiter plate; assay type: cell-based, Bacillus subtilis; settings: LB, 37°C, 10^5 CFU/mL, OD600 after 18 h
Experimental: as §1

[1] = system: B. subtilis BSF2470 (1A980); experiment: MIC determination in 96-well microtiter plate; assay type: cell-based, Bacillus subtilis; settings: LB, 37°C, 10^5 CFU/mL, OD600 after 18 h
Experimental: as §1

B. subtilis BSF2470 = experiment: Membrane permeability study with propidium iodide (flow cytometry); assay type: cell-based, Bacillus subtilis; settings: B. subtilis BSF2470, 20 min exposure, 0.5x, 1x, 4x MIC, n = 3
Experimental: Cultures of S. carnosus TM300 and B. subtilis BSF2470 were grown to OD600 1.0 and diluted to OD600 0.1 in fresh BHI or LB medium, respectively. The culture was then combined with a final concentration of 25 μM PI (ThermoFisher P3566), 1 mM HEPES, and 1 mM glucose. […] Another two tubes were prepared without antibiotic treatment as controls. The culture was analyzed with a BD Biosciences LSR II flow cytometer for S. carnosus and a BD Biosciences LSRFortessa for B. subtilis using excitation at 488 nm with an argon laser and measurement of emission through a band-pass filter at 695/40 nm. A minimum of 30,000 events were detected for each sample. The experiment was repeated three times, and the mean PI uptake value was determined. The results were calibrated such that the mean PI uptake from the 4x MIC nisin-treated cell culture was set as 100% PI uptake.

S. carnosus TM300 = experiment: Agar diffusion bioactivity assay with lipids in flanking wells; assay type: cell-based, Staphylococcus carnosus; settings: S. carnosus TM300 on BHI agar, overnight
Experimental: For agar diffusion antimicrobial activity assays, the autoclaved 1.5% agar was prepared in the appropriate medium and cooled in a 40°C water bath for 15 min. A total of 50 μL overnight culture of the sensitive strain was added to the agar and kept in the water bath. A total of 25 mL seeded agar was poured into a sterile OmniTray (Nunc) and allowed to solidify at room temperature for 30 min. An additional 35 mL of seeded agar was poured over the lower solidified agar layer. A sterile 96-well PCR plate was placed in the molten agar upper layer, and the agar was allowed to solidify at 25°C for 30 min. After sufficient solidification, the 96-well PCR plate was removed. Then 20 μL volume of each peptide was dispensed into the wells. Plates were left at 25°C for 30 min until the wells were dried, and the plates were incubated at 37°C overnight. The antibacterial activity was determined by the presence or absence of growth inhibition.
Figure S5. (A) Zones of growt h inhibition of epilancin 15X a nd nisin A against S. carnosus TM30 0 grown on BHI agar plates. The indicated amounts of antibiotics were placed in the well shown in the center of the zone of inhibition. […]

[2] = Liposome leakage assay using flow cytometry (HaloTag / AF488 ligand); assay type: biochemical; settings: 1 μM peptide, 37°C, 1 h

Substance: Epilancin 15X
- MIC (B. subtilis 168): 4.00 µM
- MIC (B. subtilis ATCC 6633): 1.25 µM
- MIC [1]: 2.5 µM
- PI uptake (membrane disruption) (B. subtilis BSF2470): increase
- antagonism of bioactivity (zone of growth inhibition) by purified S. aureus LTA (S. carnosus TM300): antagonized
- fluorescence signal (pore formation) ([2]; POPC-cholesterol liposomes with 0.1% lipid II): did not induce pore formation
- fluorescence signal (pore formation) compared to buffer control ([2]; POPC-cholesterol liposomes without lipid II): no increase in fluorescence signal
